From article PMC7866972, “Crosstalk of Cancer Signaling Pathways by Cyclic Hexapeptides and Anthraquinones from Rubia cordifolia” (Molecules, 2021)
Converted amounts (≈) assume the structure as drawn. “Also recorded” adds a separate entry of the source. Where two headings read alike, the source gives them in different places.

Experiments:
Assay type in all cases: cell-based
T98G cells = assay: Cytotoxicity assay (WST-8) of SGF/SIF treated and untreated peptide; settings: 48 h, SGF pH 1.2 60 min or SIF pH 7.5 with pancreatin 8 h, 37 °C, unpaired t-test
Protocol: (§1) T98G and MDA-MB 231 cells from ATCC, were plated in clear 384-well plates at an initial density of 1700 cells/well for T98G cells and 2500 cells/well of MDA-MB 231 cells in 40 µL of a growth medium (DMEM with 10% FBS and 1% Pen/step). The next day, the test agents were added at the specified concentration, the treatment continued for 48 h, and the cell viability was finally assessed using the WST-8 assay Cell Counting Kit from Bimake, according to the manufacturer’s instructions. The results were measured by absorbance at 450 nm using the SpectraMax M5 plate reader (Molecular Devices). The cell viability was calculated in comparison to the DMSO control.
(§2) The simulated gastric fluid was prepared as described in the United States Pharmacopoeia (USP, 1995) and consists of 0.2% w/v of NaCl and 0.7% v/v of hydrochloric acid at pH 1.2. Aliquots (48 µL) of SGF were placed in 1.5-mL microcentrifuge tubes and incubated in a water bath at 37 °C [35]. In addition, 2 µL of compound 6 (10 mg/mL in DMSO) was added to each of the SGF vials to start the digestion reaction. The incubation was continued for 60 min and the digestion was stopped with 150 µL of ice-cold cell culture media. The digested samples were used for the cytotoxicity and luciferase assays at different concentrations and the activities were compared between the untreated and SGF treated peptide samples. […]

MDA-MB 231 cells = assay: as above; settings: 48 h, SGF pH 1.2 60 min or SIF pH 7.5 with pancreatin 8 h, 37 °C, unpaired t-test
Protocol: as §1, §2

Notch = Notch luciferase reporter assay (PMA induced); settings: Homo sapiens; for activity at 1 µg/mL: Hela cells, 6 h, read-out: percentage of luciferase induction Notch/PMA
Protocol: (§3) Hela cells from ATCC were plated in white opaque 384 well plates at a density of 4300 cells/well in 30 µL of a growth medium (DMEM with 10% FBS and 1% Pen/step). The next day, the medium was aspirated and replaced with DMEM containing 10% FBS. The cells were transfected with respective plasmids using the X-tremeGENE HP transfection reagent (Roche). Luciferase vectors used in this assay are summarized in Table S2, Supporting Information. After 24 h of transfection, the test agents were added to the transfected cells, followed 30 min later by an inducing agent (IL-6 for Stat 3, TGF-beta for Smad, m-wnt3a for Wnt and PMA for AP-1, NF-kB, E2F, Myc, ETS, Notch and Hedgehog). No inducer was added for FoXO, miR-21, and […]. After 4 h or 6 h of induction, the cells were lysed by the addition of the One-Glo luciferase assay system (Promega, Madison, WI, USA). The light output was detected in a Glomax Multi+ detection system with the Instinct Software (Promega, Madison, WI, USA). This luciferase assay determines if the test agent was able to inhibit the activation of cancer-related signaling pathways. In the case of FoxO and mi-R21, the enhanced luciferase activity by the test agent was assessed.

miR-21 = miR-21 luciferase reporter assay (no inducer); settings: Hela cells, 1µg/ml, 6 h
Protocol: as §3

Ap-1 = assay: AP-1 luciferase reporter assay (PMA induced); settings: for activity at 1 µg/mL: Hela cells, 4 h, read-out: percentage of luciferase induction Ap-1/PMA
Protocol: as §3

pTK control vector = pTK control vector luciferase assay (minimal thymidine kinase promoter); settings: no inducer; for percentage of luciferase induction pTK: Hela cells, 1µg/ml
Protocol: as §3

Smad = Smad luciferase reporter assay (TGF-beta induced); settings: for percentage of luciferase induction Smad/TGF-b: Hela cells, 1µg/ml, 4 h
Protocol: as §3

FoxO = FoxO luciferase reporter assay (no inducer); settings: for percentage of luciferase induction FoxO: Hela cells, 1µg/ml, 6 h
Protocol: as §3

Myc = Myc luciferase reporter assay (PMA induced); settings: Homo sapiens; for activity at 1 µg/mL: Hela cells, 4 h, read-out: percentage of luciferase induction Myc/PMA
Protocol: as §3

E2F = E2F luciferase reporter assay (PMA induced); settings: Homo sapiens; for activity at 1 µg/mL: Hela cells, 4 h, read-out: percentage of luciferase induction E2F/PMA
Protocol: as §3

Stat3 = Stat3 luciferase reporter assay (IL-6 induced); settings: Homo sapiens; for activity at 1 µg/mL: Hela cells, 4 h, read-out: percentage of luciferase induction Stat3/IL-6
Protocol: as §3

Ets = Ets luciferase reporter assay (PMA induced); settings: Homo sapiens; for activity at 1 µg/mL: Hela cells, 4 h, read-out: percentage of luciferase induction Ets/PMA
Protocol: as §3

Wnt = Wnt luciferase reporter assay (m-wnt3a induced); settings: Homo sapiens; for activity at 1 µg/mL: Hela cells, 6 h, read-out: percentage of luciferase induction Wnt/m-wnt 3a
Protocol: as §3

[1] = tested on: cancer-related signaling pathways in HeLa cells; assay: Panel of luciferase reporter genes for cancer-related signaling pathways
Protocol: as §3
The simulated gastric fluid was prepared as described in the United States Pharmacopoeia (USP, 1995) and consists of 0.2% w/v of NaCl and 0.7% v/v of hydrochloric acid at pH 1.2. Aliquots (48 µL) of SGF were placed in 1.5-mL microcentrifuge tubes and incubated in a water bath at 37 °C [35]. In addition, 2 µL of compound 6 (10 mg/mL in DMSO) was added to each of the SGF vials to start the digestion reaction. The incubation was continued for 60 min and the digestion was stopped with 150 µL of ice-cold cell culture media. The digested samples were used for the cytotoxicity and luciferase assays at different concentrations and the activities were compared between the untreated and SGF treated peptide samples.

NF-κB = NF-κB luciferase reporter assay (PMA induced); settings: Homo sapiens; for activity at 1 µg/mL: Hela cells, 4 h, read-out: percentage of luciferase induction NF-kB/PMA
Protocol: as §3

Hedgehog = Hedgehog luciferase reporter assay (PMA induced); settings: Homo sapiens; for activity at 1 µg/mL: Hela cells, 6 h, read-out: percentage of luciferase induction Hdghog/PMA
Protocol: as §3

[2] = SGF treated compound (pH 1.2, 37 °C, 60 min)
[3] = HeLa cells, agent added 30 min before PMA, harvested 4 h later, ND = No activity detected

Structure (SMILES): COc1ccc(C[C@H]2C(=O)N[C@@H](C)C(=O)N(C)[C@H]3Cc4ccc(cc4)Oc4cc(ccc4O)C[C@@H](C(=O)N[C@H](C)C(=O)N[C@@H](C)C(=O)N2C)N(C)C3=O)cc1 [Compound 6, deoxybouvardin]
- activity (cell viability) of SGF or SIF treated compared to untreated compound (T98G cells): remained the same before and after the treatment; also recorded: non-significant
- activity (cell viability) of SGF or SIF treated compared to untreated compound (MDA-MB 231 cells): remained the same before and after the treatment; also recorded: non-significant
- IC50 (Notch; HeLa cells, agent added 30 min before PMA, harvested 6 h later, ND = No activity detected): 0.093 µg/mL (≈ 0.123 µM)
- activity at 1 µg/mL (Notch; [2]): 56%
- activity at 1 µg/mL (Notch; untreated compound): 65%
- percentage of luciferase induction miR21 (miR-21; [2]): 150%
- percentage of luciferase induction miR21 (miR-21; untreated compound): 183%
- IC50 (Ap-1; [3]): 0.22 µg/mL (≈ 0.291 µM)
- activity at 1 µg/mL (Ap-1; [2]): 43%
- activity at 1 µg/mL (Ap-1; untreated compound): 48%
- percentage of luciferase induction pTK (pTK control vector; [2]): 48%
- percentage of luciferase induction pTK (pTK control vector; untreated compound): 50%
- IC50 (pTK control vector; Homo sapiens, HeLa cells, ND = No activity detected): 0.9 µg/mL (≈ 1.19 µM)
- percentage of luciferase induction Smad/TGF-b (Smad; [2]): 41%
- percentage of luciferase induction Smad/TGF-b (Smad; untreated compound): 33%
- IC50 (Smad; Homo sapiens, HeLa cells, agent added 30 min before TGF-beta, harvested 4 h later, ND = No activity detected): 0.3 µg/mL (≈ 0.396 µM)
- percentage of luciferase induction FoxO (FoxO; [2]): 68%
- percentage of luciferase induction FoxO (FoxO; untreated compound): 51%
- IC50 (FoxO; Homo sapiens, HeLa cells, harvested 6 h later, ND = No activity detected): 0.1 µg/mL (≈ 0.132 µM)
- IC50 (Myc; [3]): 0.075 µg/mL (≈ 0.0991 µM)
- activity at 1 µg/mL (Myc; [2]): 20%
- activity at 1 µg/mL (Myc; untreated compound): -8%
- IC50 (E2F; [3]): 0.36 µg/mL (≈ 0.476 µM)
- activity at 1 µg/mL (E2F; [2]): 8%
- activity at 1 µg/mL (E2F; untreated compound): 82%
- IC50 (Stat3; HeLa cells, agent added 30 min before IL-6, harvested 4 h later, ND = No activity detected): 0.18 µg/mL (≈ 0.238 µM)
- activity at 1 µg/mL (Stat3; [2]): -4%
- activity at 1 µg/mL (Stat3; untreated compound): -4%
- IC50 (Ets; [3]): 0.18 µg/mL (≈ 0.238 µM)
- activity at 1 µg/mL (Ets; [2]): 58%
- activity at 1 µg/mL (Ets; untreated compound): 60%
- IC50 (Wnt; HeLa cells, agent added 30 min before m-wnt 3a, harvested 6 h later, ND = No activity detected): 0.05 µg/mL (≈ 0.0661 µM)
- activity at 1 µg/mL (Wnt; [2]): 12%
- activity at 1 µg/mL (Wnt; untreated compound): 6%
- activity of SGF treated peptide across the panel of cancer signaling pathways compared to untreated peptide ([1]; Hela cells, SGF treated, Table S1): comparable to the untreated peptide
- IC50 ([1]; Homo sapiens, HeLa cells, summary statement on Table 1, read-out: IC50 values for several pathways across the panel): < 0.5 µg/mL
- IC50 (NF-κB; [3]): 0.17 µg/mL (≈ 0.225 µM)
- activity at 1 µg/mL (NF-κB; [2]): 34%
- activity at 1 µg/mL (NF-κB; untreated compound): 33%
- IC50 (Hedgehog; HeLa cells, agent added 30 min before PMA, harvested 6 h later, ND = No activity detected, read-out: IC50 Hdghog/PMA): 0.2 µg/mL (≈ 0.264 µM)
- activity at 1 µg/mL (Hedgehog; [2]): 5%
- activity at 1 µg/mL (Hedgehog; untreated compound): 1%
